Data reported in patent publication US20030185878A1, “Process for producing phospholipid-containing drug” (priority 2002, published 2003).

| SMILES | melting point [°C] |
| --- | --- |
| Cn1ncc2c1-c1c(Oc3ccc4c(c3)OCO4)sc(C(N)=O)c1CC2 [Reference Example 4, 4,5-Dihydro-1-methyl-8-(3,4-methylenedioxyphenoxy)-1H-thieno[3,4-g]indazole-6-carboxamide] | 204 to 205 |
| Cn1ncc2c1-c1c(Oc3ccc(OCc4ccccc4)cc3)sc(C(N)=O)c1CC2 [compound 5, 8-(4-Benzyloxyphenoxy)-4,5-dihydro-1-methyl-1H-thieno[3,4-g]indazole-6-carboxamide] | 200 to 201 |
| COc1ccc(Oc2sc(C(N)=O)c3c2-c2c(cnn2C)CC3)cc1 [compound 6, 4,5-Dihydro-1-methyl-8-(4-methoxyphenoxy)-1H-thieno[3,4-g]indazole-6-carboxamide] | 203 to 205 |
| Cn1ncc2c1-c1c(Oc3ccc(OC(F)(F)F)cc3)sc(C(N)=O)c1CC2 [compound 7, 4,5-Dihydro-1-methyl-8-(4-trifluoromethoxyphenoxy)-1H-thieno[3,4-g]indazole-6-carboxamide] | 212 to 213 |
| Cc1cccc(Oc2sc(C(N)=O)c3c2-c2c(cnn2CC(F)(F)F)CC3)c1C [compound 9, 4,5-Dihydro-8-(2,3-dimethylphenoxy)-1-(2,2,2-trifluoroethyl)-1H-thieno[3,4-g]indazole-6-carboxamide] | 190 to 191 |
| Cn1ncc2c1-c1c(Oc3ccc(OCc4ccncc4)cc3)sc(C(N)=O)c1CC2 [compound 14, 4,5-Dihydro-1-methyl-8-[4-(4-pyridylmethyloxy)phenoxy]-1H-thieno[3,4-g]indazole-6-carboxamide] | 249 to 250 |
| Cn1ncc2c1-c1c(Oc3ccc(F)cc3)sc(C(N)=O)c1CC2 [compound 15, 4,5-Dihydro-1-methyl-8-(4-fluorophenoxy)-1H-thieno[3,4-g]indazole-6-carboxamide] | 188 to 189 |
